Two compounds from patent EP0323865A1, “Novel immunosuppressant agent” (Merck & Co., Inc., priority 1988, dated 1989) can be followed below.

Data set [1] relates to mouse T lymphocytes. In words: T-cell proliferation assay (ionomycin plus PMA induced T-cell stimulation, tritiated thymidine uptake). It counts as cell-based, C57Bl/6 mice. The conditions noted are these: result in words. Here is the method:
The principle of this assay is to measure the proliferation of mouse T lymphocytes stimulated with the combination of ionomycin plus PMA. A positive sample in this assay will inhibit T-cell proliferation, as indicated by reduced tritiated thymidine uptake.
An equal volume of methanol was added to a 1 ml sample of each of the above broths producing a 1:2 whole broth equivalent (WBE). The samples were centrifuged at 3,000 rpm for 5 minutes and the resulting supernatants were used as starting materials for the T-cell proliferation assay. […]
Purified T lymphocytes were resuspended at 10⁶ cells/ml in complete culture medium composed of RPMI 1640 medium with 10% heat-inactivated fetal calf serum, […], 1 mM sodium pyruvate, 2 x 10⁻⁵ M 2-mercaptoethanol and 50 µg/ml gentamycin. […] The proliferation of T lymphocytes was assessed by measurement of tritiated thymidine incorporation. […] Radioactivity of filter discs corresponding to individual wells was measured by standard liquid scintillation counting methods (Betacounter). Mean counts per minute of replicate wells were calculated and the results expressed as percent inhibition of tritiated thymidine uptake (proliferation) as follows: [formula]

A short description of data set [2]: Physical characteristics: solubility. It counts as physicochemical. The conditions noted are these: methanol. The text has this:
White amorphous powder • 2. […] Molecular weight determined by mass spectroscopy of 791.4784, consistent with an empirical formula of C₄₃H₆₉NO₁₂

With `CC[C@@H]1/C=C(\C)C[C@H](C)C[C@H](OC)[C@H]2O[C@@](O)(C(=O)C(=O)N3CCCC[C@H]3C(=O)O[C@H](/C(C)=C/[C@@H]3CC[C@@H](O)[C@H](OC)C3)[C@H](C)[C@@H](O)CC1=O)[C@H](C)C[C@@H]2OC` [immunomycin], the “inhibition of T-cell activation” value in data set [1] is listed as “positive inhibition of T-cell activation”. In addition, the Solubility result in data set [2] was “Solubility in methanol”.

In the case of `CC[C@@H]1/C=C(\C)C[C@H](C)C[C@H](OC)[C@H]2O[C@@](O)(C(=O)C(=O)N3CCCC[C@H]3C(=O)O[C@H](/C(C)=C/[C@@H]3CC[C@@H](O)[C@H](OC)C3)[C@H](C)[C@@H](O)CC1=O)[C@H](C)C[C@@H]2OC` [ascomycin, reference compound], the immunosuppressive activity entry in data set [1] (for ascomycin no test is named) is “exhibits immunosuppressive activity”.
